Source: ChEMBL document CHEMBL1156106 (J Med Chem, 2009)
pKi: −log10 of the molar value.

What was measured:
Rattus norvegicus [1] = experiment: Effect on behavioural activity in rat assessed as cocaine-induced lever response at 25 mg/kg, ip pretreated with cocaine for 30 mins by drug-discrimination studies; assay type: functional; settings: route intraperitoneal
Rattus norvegicus [2] = experiment: Effect on behavioural activity in rat assessed as cocaine-induced lever response at 5 mg/kg, po pretreated with cocaine for 90 mins by drug-discrimination studies; assay type: functional
Rattus norvegicus [3] = experiment: Effect on behavioural activity in rat assessed as cocaine-induced lever response at 5 mg/kg, ip pretreated with cocaine for 30 mins by drug-discrimination studies; assay type: functional; settings: route intraperitoneal
Rattus norvegicus [4] = experiment: Effect on behavioural activity in rat assessed as cocaine-induced lever response at 25 mg/kg, po pretreated with cocaine for 45 mins by drug-discrimination studies; assay type: functional
Mus musculus [5] = experiment: Antidepressant activity in ip dosed mouse assessed as stimulation of locomotor activity; assay type: functional
Rattus norvegicus [6] = experiment: Effect on behavioural activity in rat assessed as cocaine-induced lever response at 2.5 mg/kg, ip pretreated with cocaine for 30 mins by drug-discrimination studies; assay type: functional; settings: route intraperitoneal
Rattus norvegicus [7] = experiment: Effect on behavioural activity in rat assessed as cocaine-induced lever response at 2.5 mg/kg, po pretreated with cocaine for 45 mins by drug-discrimination studies; assay type: functional
Rattus norvegicus [8] = experiment: Effect on behavioural activity in rat assessed as cocaine-induced lever response at 10 mg/kg, po pretreated with cocaine for 90 mins by drug-discrimination studies; assay type: functional
Rattus norvegicus [9] = experiment: Effect on behavioural activity in ip dosed rat assessed as cocaine-induced lever response pretreated with cocaine by drug-discrimination studies; assay type: functional
Rattus norvegicus [10] = experiment: Effect on behavioural activity in rat assessed as cocaine-induced lever response at 10 mg/kg, po pretreated with cocaine for 45 mins by drug-discrimination studies; assay type: functional
Rattus norvegicus [11] = experiment: Effect on behavioural activity in rat assessed as cocaine-induced lever response at 25 mg/kg, po pretreated with cocaine for 90 mins by drug-discrimination studies; assay type: functional
Rattus norvegicus [12] = experiment: Effect on behavioural activity in rat assessed as cocaine-induced lever response at 2.5 mg/kg, po pretreated with cocaine for 360 mins by drug-discrimination studies; assay type: functional
Mus musculus [13] = experiment: Antidepressant activity in ip dosed mouse assessed as stimulation of locomotor activity relative to cocaine; assay type: functional
Rattus norvegicus [14] = experiment: Effect on behavioural activity in rat assessed as cocaine-induced lever response at 5 mg/kg, po pretreated with cocaine for 180 mins by drug-discrimination studies; assay type: functional
Rattus norvegicus [15] = experiment: Effect on behavioural activity in rat assessed as cocaine-induced lever response at 10 mg/kg, po pretreated with cocaine for 360 mins by drug-discrimination studies; assay type: functional
Rattus norvegicus [16] = experiment: Effect on behavioural activity in rat assessed as cocaine-induced lever response at 5 mg/kg, po pretreated with cocaine for 45 mins by drug-discrimination studies; assay type: functional
Rattus norvegicus [17] = experiment: Effect on behavioural activity in rat assessed as cocaine-induced lever response at 1 mg/kg, ip pretreated with cocaine for 30 mins by drug-discrimination studies; assay type: functional; settings: route intraperitoneal
Rattus norvegicus [18] = experiment: Effect on behavioural activity in rat assessed as cocaine-induced lever response at 10 mg/kg, ip pretreated with cocaine for 30 mins by drug-discrimination studies; assay type: functional; settings: route intraperitoneal
Rattus norvegicus [19] = experiment: Effect on behavioural activity in rat assessed as cocaine-induced lever response at 10 mg/kg, po pretreated with cocaine for 180 mins by drug-discrimination studies; assay type: functional
Rattus norvegicus [20] = experiment: Effect on behavioural activity in rat assessed as cocaine-induced lever response at 2.5 mg/kg, po pretreated with cocaine for 90 mins by drug-discrimination studies; assay type: functional
Rattus norvegicus [21] = experiment: Effect on behavioural activity in rat assessed as cocaine-induced lever response at 2.5 mg/kg, po pretreated with cocaine for 180 mins by drug-discrimination studies; assay type: functional
Rattus norvegicus [22] = experiment: Effect on behavioural activity in rat assessed as cocaine-induced lever response at 25 mg/kg, po pretreated with cocaine for 360 mins by drug-discrimination studies; assay type: functional
Rattus norvegicus [23] = experiment: Effect on behavioural activity in rat assessed as cocaine-induced lever response at 25 mg/kg, po pretreated with cocaine for 180 mins by drug-discrimination studies; assay type: functional
Rattus norvegicus [24] = experiment: Effect on behavioural activity in po dosed rat assessed as cocaine-induced lever response pretreated with cocaine by drug-discrimination studies; assay type: functional
Mus musculus [25] = experiment: Antidepressant activity in ip dosed mouse assessed as time to reach peak stimulation of locomotor activity; assay type: functional
Mus musculus [26] = experiment: Antidepressant activity in ip dosed mouse assessed as duration of locomotor activity; assay type: functional
Rattus norvegicus [27] = experiment: Effect on behavioural activity in rat assessed as cocaine-induced lever response at 5 mg/kg, po pretreated with cocaine for 360 mins by drug-discrimination studies; assay type: functional
Rattus norvegicus [28] = experiment: Effect on behavioural activity in rat assessed as cocaine-induced lever response at 50 mg/kg, po pretreated with cocaine for 90 mins by drug-discrimination studies; assay type: functional
Rattus norvegicus [29] = experiment: Effect on behavioural activity in rat assessed as cocaine-induced lever response at 50 mg/kg, po pretreated with cocaine for 360 mins by drug-discrimination studies; assay type: functional
Rattus norvegicus [30] = experiment: Effect on behavioural activity in rat assessed as cocaine-induced lever response at 50 mg/kg, po pretreated with cocaine for 180 mins by drug-discrimination studies; assay type: functional
Rattus norvegicus [31] = experiment: Effect on behavioural activity in rat assessed as cocaine-induced lever response at 50 mg/kg, po pretreated with cocaine for 45 mins by drug-discrimination studies; assay type: functional
[32] = target: Sodium-dependent serotonin transporter (Homo sapiens, UniProt P31645); experiment: biochemical; assay type: cell-based, HEK293
Rattus norvegicus [33] = experiment: Effect on behavioural activity in rat assessed as cocaine-induced lever response at 100 mg/kg, po pretreated with cocaine for 180 mins by drug-discrimination studies; assay type: functional
Rattus norvegicus [34] = experiment: Effect on behavioural activity in rat assessed as cocaine-induced lever response at 100 mg/kg, po pretreated with cocaine for 45 mins by drug-discrimination studies; assay type: functional
Rattus norvegicus [35] = experiment: Effect on behavioural activity in rat assessed as cocaine-induced lever response at 5 mg/kg, ip pretreated with cocaine for 15 mins by drug-discrimination studies; assay type: functional; settings: route intraperitoneal
[36] = target: Sodium-dependent noradrenaline transporter (Homo sapiens, UniProt P23975); experiment: Displacement of [125I]RTI55 from cloned human NET expressed in HEK293 cells; assay type: cell-based
Rattus norvegicus [37] = experiment: Effect on behavioural activity in rat assessed as cocaine-induced lever response at 25 mg/kg, ip pretreated with cocaine for 15 mins by drug-discrimination studies; assay type: functional; settings: route intraperitoneal
Rattus norvegicus [38] = experiment: Effect on behavioural activity in rat assessed as cocaine-induced lever response at 10 mg/kg, ip pretreated with cocaine for 15 mins by drug-discrimination studies; assay type: functional; settings: route intraperitoneal
Rattus norvegicus [39] = experiment: Effect on behavioural activity in rat assessed as cocaine-induced lever response at 100 mg/kg, po pretreated with cocaine for 90 mins by drug-discrimination studies; assay type: functional
Rattus norvegicus [40] = experiment: Effect on behavioural activity in rat assessed as cocaine-induced lever response at 2.5 mg/kg, ip pretreated with cocaine for 15 mins by drug-discrimination studies; assay type: functional; settings: route intraperitoneal
Rattus norvegicus [41] = experiment: Effect on behavioural activity in rat assessed as cocaine-induced lever response at 100 mg/kg, po pretreated with cocaine for 360 mins by drug-discrimination studies; assay type: functional
Rattus norvegicus [42] = experiment: Effect on behavioural activity in rat assessed as cocaine-induced lever response at 1 mg/kg, ip pretreated with cocaine for 15 mins by drug-discrimination studies; assay type: functional; settings: route intraperitoneal
Rattus norvegicus [43] = experiment: Effect on behavioural activity in rat assessed as cocaine-induced lever response at 50 mg/kg, ip pretreated with cocaine for 15 mins by drug-discrimination studies; assay type: functional; settings: route intraperitoneal

Sodium-dependent serotonin transporter, sequence (P31645 whole entry): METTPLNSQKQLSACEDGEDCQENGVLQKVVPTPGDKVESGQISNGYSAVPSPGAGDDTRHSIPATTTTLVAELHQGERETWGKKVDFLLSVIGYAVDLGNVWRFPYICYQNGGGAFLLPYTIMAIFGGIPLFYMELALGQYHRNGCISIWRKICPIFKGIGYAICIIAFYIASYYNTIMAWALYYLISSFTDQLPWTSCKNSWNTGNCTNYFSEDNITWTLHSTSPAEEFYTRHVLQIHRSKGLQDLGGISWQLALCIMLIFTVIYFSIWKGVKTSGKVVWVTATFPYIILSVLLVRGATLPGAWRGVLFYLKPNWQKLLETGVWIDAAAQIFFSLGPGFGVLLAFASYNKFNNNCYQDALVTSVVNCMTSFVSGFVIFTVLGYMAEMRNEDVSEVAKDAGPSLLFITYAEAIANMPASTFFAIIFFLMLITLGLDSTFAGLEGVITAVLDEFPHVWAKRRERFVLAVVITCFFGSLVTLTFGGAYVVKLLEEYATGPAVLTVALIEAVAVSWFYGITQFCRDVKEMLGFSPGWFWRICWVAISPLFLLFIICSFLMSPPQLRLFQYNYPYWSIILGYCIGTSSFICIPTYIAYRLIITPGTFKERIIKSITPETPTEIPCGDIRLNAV
Sodium-dependent noradrenaline transporter, sequence (P23975 whole entry): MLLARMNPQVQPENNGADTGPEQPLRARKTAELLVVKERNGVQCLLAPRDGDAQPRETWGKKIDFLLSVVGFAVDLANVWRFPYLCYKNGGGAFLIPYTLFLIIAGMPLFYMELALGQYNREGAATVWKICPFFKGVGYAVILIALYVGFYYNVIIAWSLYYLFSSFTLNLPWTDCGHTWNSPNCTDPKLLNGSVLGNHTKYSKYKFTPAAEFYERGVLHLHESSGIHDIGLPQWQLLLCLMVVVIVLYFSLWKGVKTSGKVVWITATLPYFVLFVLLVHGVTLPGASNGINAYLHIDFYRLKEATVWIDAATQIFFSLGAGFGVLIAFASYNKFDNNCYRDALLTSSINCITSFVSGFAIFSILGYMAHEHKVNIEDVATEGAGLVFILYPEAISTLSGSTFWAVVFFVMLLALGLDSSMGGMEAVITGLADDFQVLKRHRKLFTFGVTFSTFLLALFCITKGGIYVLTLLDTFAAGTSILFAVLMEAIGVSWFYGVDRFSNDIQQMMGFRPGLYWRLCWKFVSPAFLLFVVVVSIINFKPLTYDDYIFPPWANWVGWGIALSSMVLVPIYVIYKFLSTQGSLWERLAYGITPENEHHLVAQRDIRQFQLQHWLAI

SMILES | Activity (Rattus norvegicus [2]) [%] | Activity (Rattus norvegicus [4]) [%] | ED50 (Mus musculus [5]) [mg/kg] | Activity (Rattus norvegicus [8]) [%] | ED50 (Rattus norvegicus [9]) [mg/kg] | Activity (Rattus norvegicus [10]) [%] | Activity (Rattus norvegicus [11]) [%] | Activity (Mus musculus [13]) [%] | Activity (Rattus norvegicus [14]) [%] | Activity (Rattus norvegicus [16]) [%] | Activity (Rattus norvegicus [19]) [%] | Activity (Rattus norvegicus [22]) [%] | Activity (Rattus norvegicus [23]) [%] | ED50 (Rattus norvegicus [24]) [mg/kg] | Time to peak locomotor stimulation (Mus musculus [25]) [min] | Time (Mus musculus [26]) [min] | Activity (Rattus norvegicus [27]) [%] | Activity (Rattus norvegicus [29]) [%] | Activity (Rattus norvegicus [30]) [%] | Activity (Rattus norvegicus [31]) [%] | further results
CCCC(NC(C)(C)C)C(=O)c1ccc(Cl)c(Cl)c1 (centres undefined) | 13 | 58 | 38 | 0 | 3.9 | 33 | 84 | 93 | 0 | 0 | 5 | 0 | 17 | 22.8 | 0 | 470 | 0 |  |  |  | Activity (Rattus norvegicus [1]): 100%; Activity (Rattus norvegicus [3]): 33.3%; Activity (Rattus norvegicus [6]): 41.8%; Activity (Rattus norvegicus [7]): 17%; Activity (Rattus norvegicus [12]): 0%; Activity (Rattus norvegicus [15]): 0%; Activity (Rattus norvegicus [17]): 0%; Activity (Rattus norvegicus [18]): 33.3%; Activity (Rattus norvegicus [20]): 0%; Activity (Rattus norvegicus [21]): 0%
CCC(NC(C)(C)C)C(=O)c1ccc(Cl)c(Cl)c1 (centres undefined) |  | 50 | 38 | 0 | 6.3 | 34 | 33 | 69 | 0 | 17 | 0 | 33 | 2 | 15.2 | 0 | 60 | 0 | 16 | 50 | 83 | Activity (Rattus norvegicus [1]): 100%; Activity (Rattus norvegicus [28]): 67%; Activity (Rattus norvegicus [3]): 16.7%; Activity (Rattus norvegicus [6]): 33.3%; Activity (Rattus norvegicus [7]): 33%; Activity (Rattus norvegicus [12]): 17%; Activity (Rattus norvegicus [15]): 2%; Activity (Rattus norvegicus [17]): 0%; Activity (Rattus norvegicus [20]): 17%; Activity (Rattus norvegicus [21]): 50%
CC(NC1CCCC1)C(=O)c1cccc(Cl)c1 (centres undefined) | 0 | 67 | 12.3 | 33 | 10.9 | 60 | 67 | 107 | 0 | 50 | 0 | 34 |  | 6.6 | 0 | 330 | 0 | 16 | 33 | 100 | Activity (Rattus norvegicus [1]): 83.4%; Activity (Rattus norvegicus [3]): 0%; Activity (Rattus norvegicus [6]): 23.9%; Activity (Rattus norvegicus [7]): 17%; Activity (Rattus norvegicus [17]): 0.9%; Activity (Rattus norvegicus [18]): 66.2%; pKi [32]: < 5.00
CC(NC(C)(C)C)C(=O)c1cccc(F)c1 (centres undefined) | 0 | 49 | 17.5 | 0 | 11.6 | 17 | 16 | 80 | 0 | 17 | 33 | 0 | 0 | 25.3 | 0 | 150 | 0 | 0 | 18 | 67 | Activity (Rattus norvegicus [28]): 33%; Activity (Rattus norvegicus [33]): 83%; Activity (Rattus norvegicus [34]): 95%; Activity (Rattus norvegicus [35]): 0%; pKi [36]: < 5.00; Activity (Rattus norvegicus [37]): 100%; Activity (Rattus norvegicus [38]): 50.2%; Activity (Rattus norvegicus [39]): 75%; pKi [32]: < 5.00; Activity (Rattus norvegicus [40]): 17.6%; Activity (Rattus norvegicus [41]): 50%
CC(NC(C)(C)C)C(=O)c1cccc(Cl)c1 (centres undefined) [BUPROPION] | 0 | 50 | 5.5 | 1 |  | 17 | 0 | 87 | 2.5 | 33 | 0 | 1 | 22 | 22.8 | 0 | 130 |  | 0 | 17 | 83 | Activity (Rattus norvegicus [28]): 50%; Activity (Rattus norvegicus [42]): 24.1%; Activity (Rattus norvegicus [15]): 0%; Activity (Rattus norvegicus [35]): 0%; Activity (Rattus norvegicus [37]): 66.3%; Activity (Rattus norvegicus [38]): 67.1%; Activity (Rattus norvegicus [43]): 66.7%; Activity (Rattus norvegicus [40]): 0.7%
